In US4212862A, “O,O-Diaryl-1-acyloxy-2,2,2-trichloroethylphosphonates and fungicides based thereon” (priority 1978, dated 1980):
“And” between values parts separate entries of the source, which are not always exact repeats. Identical values can stand only once. Like-named read-outs stand apart in the source and are kept apart here.

Columns and labels:
[1] = system: stalk rust of wheat (Puccinia graminis); type: in vivo
[2] = Acute peroral toxicity for warm-blooded animals (LD50, LD90); type: in vivo, white mice; conditions: mouse, in vivo, po, Table 2; peroral; read-out: LD50 for white mice
Description: Toxicity (LD50) was evaluated on males and females of white mice with peroral administration of the compounds. A portion of the test compound was mixed with the emulsifier Twin-20 and diluted with distilled water to the required working concentration. Administration of the preparation was effected by means of a metal probe and syringe directly into the stomach of test animals 2-3 hours after feeding. The tests were performed using several doses, 6 animals per each dose. Subsequent observation was effected for two weeks.

[3] = system: stalk rust (Puccinia graminis f. tritici); type: in vivo; conditions: in vivo

| Compound | Percentage of injury lowered ([1]; in vivo) | LD50 at 336 h [2] | Percentage of plants injured with rust, 1-st evaluation [3] | Percentage of plants injured with rust, 2-nd evaluation [3] | Weight of 1,000 grains [3] | Yield [3] | Percentage of injury lowered ([1]; at a concentration of 0.02%, sprayed 3 days before inoculation) | Percentage of injury lowered ([1]; at a concentration of 0.1%, sprayed 3 days before inoculation) |
| --- | --- | --- | --- | --- | --- | --- | --- | --- |
| CCCCCCC(=O)OC(C(Cl)(Cl)Cl)P(=O)(Oc1ccc(-c2ccccc2)cc1)Oc1ccc(-c2ccccc2)cc1 (stereo not drawn) [XLV] | 72% | > 1000 mg/kg | – | – | – | – | – | – |
| CC(=O)OC(C(Cl)(Cl)Cl)P(=O)(Oc1ccc(Cl)c(C)c1)Oc1ccc(Cl)c(C)c1 (stereo not drawn) [XL] | 95% and 76% | > 1000 mg/kg | – | – | – | – | – | – |
| CC(=O)OC(C(Cl)(Cl)Cl)P(=O)(Oc1ccc(C)cc1)Oc1ccc(C)cc1 (stereo not drawn) [XVIII] | 91% and 63% | > 500 mg/kg | 0.5% | 6.5% | 21.4 g | 17.20 c/ha | – | – |
| Cc1cccc(OP(=O)(Oc2cccc(C)c2)C(OC(=O)c2ccccc2)C(Cl)(Cl)Cl)c1 (stereo not drawn) [XVII] | – | > 1000 mg/kg | – | – | – | – | – | – |
| CCCCC(CC)C(=O)OC(C(Cl)(Cl)Cl)P(=O)(Oc1cccc(C)c1)Oc1cccc(C)c1 (stereo not drawn) [XVI] | 86% | > 1000 mg/kg | – | – | – | – | – | – |
| CCCCCCC(=O)OC(C(Cl)(Cl)Cl)P(=O)(Oc1cccc(C)c1)Oc1cccc(C)c1 (stereo not drawn) [XV] | 98% and 80% | > 1000 mg/kg | 0.5% | 7.0% | 19.4 g | 15.10 c/ha | – | – |
| Cc1ccc(OP(=O)(Oc2ccc(C)cc2)C(OC(=O)c2ccccc2)C(Cl)(Cl)Cl)cc1 (stereo not drawn) [XXIII] | 89% and 79% | > 1000 mg/kg | 0.5% | 8.0% | 18.1 g | 13.30 c/ha | – | – |
| CCCCC(CC)C(=O)OC(C(Cl)(Cl)Cl)P(=O)(Oc1ccc(C)cc1)Oc1ccc(C)cc1 (stereo not drawn) [XXII] | 94% and 48% | > 1000 mg/kg | 0.5% | 9.0% | 15.8 g | 11.00 c/ha | – | – |
| CCCCCCCCc1ccc(OP(=O)(Oc2ccc(CCCCCCCC)cc2)C(OC(C)=O)C(Cl)(Cl)Cl)cc1 (stereo not drawn) [XXIV] | 62% and 35% | > 1000 mg/kg | 0.5% | 12.0% | 13.5 g | 8.00 c/ha | – | – |
| CCCCCCCCc1ccc(OP(=O)(Oc2ccc(CCCCCCCC)cc2)C(OC(=O)CC)C(Cl)(Cl)Cl)cc1 (stereo not drawn) [XXV] | – | > 1000 mg/kg | 0.5% | 10.0% | 16.0 g | 11.10 c/ha | – | – |
| CCC(=O)OC(C(Cl)(Cl)Cl)P(=O)(Oc1ccc(F)cc1)Oc1ccc(F)cc1 (stereo not drawn) [XXXIII] | 100% and 62% | > 1000 mg/kg | – | – | – | – | – | – |
| CC(=O)OC(C(Cl)(Cl)Cl)P(=O)(Oc1ccc(F)cc1)Oc1ccc(F)cc1 (stereo not drawn) [XXXII] | 100% and 84% | > 1000 mg/kg | – | – | – | – | – | – |
| CCCC(=O)OC(C(Cl)(Cl)Cl)P(=O)(Oc1ccc(F)cc1)Oc1ccc(F)cc1 (stereo not drawn) [XXXIV] | 99% and 95% | – | 0.5% | 7.4% | 19.6 g | 15.10 c/ha | – | – |
| CCC(=O)OC(C(Cl)(Cl)Cl)P(=O)(Oc1ccc(Cl)cc1C)Oc1ccc(Cl)cc1C (stereo not drawn) [XXXIX] | – | > 500 mg/kg | – | – | – | – | – | – |
| CC(=O)OC(C(Cl)(Cl)Cl)P(=O)(Oc1ccc(Cl)cc1C)Oc1ccc(Cl)cc1C (stereo not drawn) [XXXVIII] | 92% and 53% | > 500 mg/kg | – | – | – | – | – | – |
| O=C(OC(C(Cl)(Cl)Cl)P(=O)(Oc1ccc(F)cc1)Oc1ccc(F)cc1)c1ccccc1 (stereo not drawn) [XXXVII] | – | > 1000 mg/kg | – | – | – | – | – | – |
| CCCCC(CC)C(=O)OC(C(Cl)(Cl)Cl)P(=O)(Oc1ccc(F)cc1)Oc1ccc(F)cc1 (stereo not drawn) [XXXVI] | – | > 1000 mg/kg | – | – | – | – | – | – |
| CCCCCCC(=O)OC(C(Cl)(Cl)Cl)P(=O)(Oc1ccc(F)cc1)Oc1ccc(F)cc1 (stereo not drawn) [XXXV] | – | > 1000 mg/kg | – | – | – | – | – | – |
| CCCCC(CC)C(=O)OC(C(Cl)(Cl)Cl)P(=O)(Oc1ccccc1C)Oc1ccccc1C (stereo not drawn) [X] | – | > 1000 mg/kg | – | – | – | – | – | – |
| COP(=O)(OC)C(OC(C)=O)C(Cl)(Cl)Cl (stereo not drawn) [chloracetophos, O,O-dimethyl-1-acetoxy-2,2,2-trichloroethylphosphonate, reference compound] | – | > 1000 mg/kg | – | – | – | – | 10% | 54% |
| O=P(Oc1ccccc1)(Oc1ccccc1)C(O)C(Cl)(Cl)Cl (stereo not drawn) [reference compound] | 71% and 61% | > 400 mg/kg | – | – | – | – | – | – |
